In brackets after ≈: the same amount, converted by molar mass. Activity calls are given as the source filed them. The rule behind the calls is not given here.
Columns and labels:
Bacillus subtilis [1] = assay: Antibacterial activity against Bacillus subtilis 1046 in presence of 1.25 mM Ca2+; assay type: functional
Lipid bilayer [2] = assay: Binding affinity to DMPC/DMPG large unilamellar vesicles assessed as increase in intrinsic fluorescence in presence of 10 mM Ca2+ by fluorescence based assay
Bacillus subtilis [3] = assay: Antibacterial activity against Bacillus subtilis 1046 in presence of 5 mM Ca2+; assay type: functional
Lipid bilayer [4] = assay: Binding affinity to DMPC/DMPG large unilamellar vesicles assessed as increase in intrinsic fluorescence in presence of 1 mM Ca2+ by fluorescence based assay
Staphylococcus aureus = assay: Antibacterial activity against Staphylococcus aureus; assay type: functional
Lipid bilayer [5] = assay: Binding affinity to DMPC/DMPG large unilamellar vesicles assessed as increase in intrinsic fluorescence in presence of >10 mM Ca2+ by fluorescence based assay
Lipid bilayer [6] = assay: Binding affinity to DMPC/DMPG large unilamellar vesicles assessed as increase in intrinsic fluorescence in presence of >1 mM Ca2+ by fluorescence based assay
Lipid bilayer [7] = assay: Binding affinity to DMPC/DMPG large unilamellar vesicles assessed as increase in intrinsic fluorescence in presence of >0.1 mM Ca2+ by fluorescence based assay

MIC (Bacillus subtilis [1]) [µg/mL]	Activity (Lipid bilayer [2])	MIC (Bacillus subtilis [3]) [µg/mL]	Activity (Lipid bilayer [4])	Activity (Lipid bilayer [5])	Activity (Lipid bilayer [6])	Compound	MIC (Staphylococcus aureus) [µg/mL]	Activity (Lipid bilayer [7])
> 200	Active	100	Active	–	–	CCCCCCCCCC(=O)N[C@H](Cc1c[nH]c2ccccc12)C(=O)N[C@H](CC(N)=O)C(=O)N[C@@H](CC(=O)O)C(=O)N[C@H]1C(=O)NCC(=O)N[C@H](CCCCN)C(=O)N[C@H](CC(=O)O)C(=O)N[C@@H](C)C(=O)N[C@H](CC(=O)O)C(=O)NCC(=O)N[C@@H](CO)C(=O)N[C@H](CCC(=O)O)C(=O)N[C@H](Cc2c[nH]c3ccccc23)C(=O)O[C@H]1C	–	–
–	–	–	–	–	–	CCCCCCCCCC(=O)N[C@H](Cc1c[nH]c2ccccc12)C(=O)N[C@H](CC(N)=O)C(=O)N[C@@H](CC(=O)O)C(=O)N[C@H]1CNC(=O)[C@@H](Cc2c[nH]c3ccccc23)NC(=O)[C@@H](CCC(=O)O)NC(=O)[C@H](CO)NC(=O)CNC(=O)[C@@H](CC(=O)O)NC(=O)[C@H](C)NC(=O)[C@@H](CC(=O)O)NC(=O)[C@@H](CCCCN)NC(=O)CNC1=O	160 (≈ 99.9 µM)	–
> 100	–	10	–	Active	–	CCCCCCCCCC(=O)N[C@@H](Cc1c[nH]c2ccccc12)C(=O)N[C@@H](CC(N)=O)C(=O)N[C@@H](CC(=O)O)C(=O)N[C@@H]1C(=O)NCC(=O)N[C@@H](CCCCN)C(=O)N[C@@H](CC(=O)O)C(=O)N[C@H](C)C(=O)N[C@@H](CC(=O)O)C(=O)NCC(=O)N[C@H](CO)C(=O)N[C@@H](CCC(=O)O)C(=O)N[C@@H](Cc2c[nH]c3ccccc23)C(=O)N[C@H]1C	–	–
50	–	10	–	–	Active	CCCCCCCCCC(=O)N[C@@H](Cc1c[nH]c2ccccc12)C(=O)N[C@@H](CC(N)=O)C(=O)N[C@@H](CC(=O)O)C(=O)N[C@@H]1C(=O)NCC(=O)N[C@@H](CCCCN)C(=O)N[C@@H](CC(=O)O)C(=O)N[C@H](C)C(=O)N[C@@H](CC(=O)O)C(=O)NCC(=O)N[C@H](CO)C(=O)N[C@@H](CCC(=O)O)C(=O)N[C@@H](Cc2c[nH]c3ccccc23)C(=O)N[C@@H]1C	–	–
1.5	–	0.5	–	–	–	CCCCCCCCCC(=O)N[C@@H](Cc1c[nH]c2ccccc12)C(=O)N[C@@H](CC(N)=O)C(=O)N[C@@H](CC(=O)O)C(=O)N[C@@H]1C(=O)NCC(=O)N[C@@H](CCCCN)C(=O)N[C@@H](CC(=O)O)C(=O)N[C@H](C)C(=O)N[C@@H](CC(=O)O)C(=O)NCC(=O)N[C@H](CO)C(=O)N[C@@H](CCC(=O)O)C(=O)N[C@@H](Cc2c[nH]c3ccccc23)C(=O)O[C@@H]1C	–	Active

Compound	MIC (Bacillus subtilis [1]) [µg/mL]	Activity (Lipid bilayer [2])	MIC (Bacillus subtilis [3]) [µg/mL]	Activity (Lipid bilayer [4])	Activity (Lipid bilayer [5])	Activity (Lipid bilayer [6])	MIC (Staphylococcus aureus) [µg/mL]	Activity (Lipid bilayer [7])
CCCCCCCCCC(=O)N[C@@H](Cc1c[nH]c2ccccc12)C(=O)N[C@H](CC(N)=O)C(=O)N[C@@H](CC(=O)O)C(=O)N[C@@H]1C(=O)NCC(=O)N[C@@H](CCCN)C(=O)N[C@@H](CC(=O)O)C(=O)N[C@H](C)C(=O)N[C@@H](CC(=O)O)C(=O)NCC(=O)N[C@H](CO)C(=O)N[C@@H]([C@H](C)CC(=O)O)C(=O)N[C@@H](CC(=O)c2ccccc2N)C(=O)O[C@@H]1C	0.75	–	0.5	–	–	–	1.9 (≈ 1.17 µM)	Active
